Assay results: patent publication US9085561B2, “Cyclic urea- or lactam-substituted quinoxaline-type piperidines as ORL-1 modulators” (priority 2012, dated 2015)

Columns and labels:
[1] = target: human kappa opioid receptor (Homo sapiens, UniProt P41145); experiment: In vitro kappa-opioid receptor binding assay ([3H]-U69,593 displacement)
[2] = target: human opioid receptor-like (ORL-1) (Homo sapiens, UniProt P41146); experiment: In vitro ORL-1 receptor [35S]GTPγS functional assay; assay type: biochemical
human opioid receptor-like (ORL-1), sequence (P41146 whole entry): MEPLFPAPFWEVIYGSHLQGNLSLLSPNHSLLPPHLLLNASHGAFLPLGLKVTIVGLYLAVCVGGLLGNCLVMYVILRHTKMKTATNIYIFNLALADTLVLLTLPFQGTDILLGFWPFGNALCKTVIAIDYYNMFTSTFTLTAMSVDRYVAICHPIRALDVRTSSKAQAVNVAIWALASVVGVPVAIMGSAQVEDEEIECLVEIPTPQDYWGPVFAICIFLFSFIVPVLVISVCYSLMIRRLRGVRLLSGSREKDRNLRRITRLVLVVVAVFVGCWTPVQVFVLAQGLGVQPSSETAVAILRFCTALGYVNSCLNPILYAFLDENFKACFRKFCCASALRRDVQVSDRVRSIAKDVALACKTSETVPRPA

human CYP2D6 = human CYP2D6 (Homo sapiens, UniProt P10635); experiment: Cytochrome P450 2D6 inhibition (dextromethorphan O-demethylation, pooled human hepatic microsome)
human CYP2D6, sequence (P10635 whole entry): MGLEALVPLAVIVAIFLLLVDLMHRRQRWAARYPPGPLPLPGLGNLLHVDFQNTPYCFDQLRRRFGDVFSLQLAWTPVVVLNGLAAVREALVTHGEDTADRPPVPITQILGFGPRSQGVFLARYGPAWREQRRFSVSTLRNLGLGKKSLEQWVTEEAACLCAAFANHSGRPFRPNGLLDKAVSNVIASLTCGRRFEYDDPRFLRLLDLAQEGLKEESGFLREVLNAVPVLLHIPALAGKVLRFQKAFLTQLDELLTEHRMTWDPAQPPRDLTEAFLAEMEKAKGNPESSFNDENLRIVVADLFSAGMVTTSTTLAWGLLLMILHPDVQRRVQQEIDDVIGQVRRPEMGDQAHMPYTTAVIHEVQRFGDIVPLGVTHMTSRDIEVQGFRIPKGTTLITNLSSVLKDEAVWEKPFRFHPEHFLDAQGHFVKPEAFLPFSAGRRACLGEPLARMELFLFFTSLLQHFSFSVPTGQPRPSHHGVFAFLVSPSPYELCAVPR

human kappa opioid receptor, sequence (P41145 whole entry): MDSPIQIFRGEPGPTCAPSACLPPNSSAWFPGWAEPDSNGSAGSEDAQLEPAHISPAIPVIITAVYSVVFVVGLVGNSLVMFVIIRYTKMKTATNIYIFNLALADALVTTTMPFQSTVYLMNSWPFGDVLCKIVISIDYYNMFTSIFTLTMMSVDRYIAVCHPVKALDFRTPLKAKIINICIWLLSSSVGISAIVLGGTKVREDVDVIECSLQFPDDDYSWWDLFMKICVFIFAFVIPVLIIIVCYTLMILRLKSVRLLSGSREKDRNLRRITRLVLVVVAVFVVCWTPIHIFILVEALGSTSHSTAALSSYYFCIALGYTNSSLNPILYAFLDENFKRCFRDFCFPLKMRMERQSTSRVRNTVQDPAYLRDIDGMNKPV

For O=c1cnn(-c2nc3ccccc3n([C@H]3C[C@H]4COC[C@@H](C3)N4[C@@H]3C[C@@H]4CCCC[C@@H](C4)C3)c2=O)c(=O)[nH]1 [Compound P9b, 2-(4-((1R,5S,7 S)-9-((1R,6S,8s)-bicyclo[4.3.1]decan-8-yl)-3-oxa-9-azabicyclo[3.3.1]nonan-7-yl)-3-oxo-3,4-dihydroquinoxalin-2-yl)-1,2,4-triazine-3,5(2H,4H)-dione], the Ki [1] was 13.1 µM, the EC50 [2] was 0.104 ± 0.043 µM and the IC50 (human CYP2D6) was > 20 µM.

O=c1ncc(-c2nc3ccccc3n([C@H]3C[C@H]4CCC[C@@H](C3)N4[C@H]3C[C@@H]4CCC[C@@H](C4)C3)c2=O)c[nH]1 [Compound U048, 1-((1R,1′R,3r,3′R,5S,5′S)-[3,9′-bi(9′-azabicyclo[3.3.1]nonan)]-3′-yl)-3-(2-oxo-1,2-dihydropyrimidin-5-yl)quinoxalin-2(1H)-one] was tested, and the EC50 [2] was > 20 µM and the IC50 (human CYP2D6) was > 20 µM.

For O=C(O)CCn1cccc(-c2nc3ccccc3n([C@H]3C[C@H]4CCC[C@@H](C3)N4[C@H]3C[C@@H]4CCC[C@@H](C4)C3)c2=O)c1=O [Compound U057, 3-(3-(4-((1R,1′R,3r,3′R,5S,5′S)-[3,9′-bi(9′-azabicyclo[3.3.1]nonan)]-3′-yl)-3-oxo-3,4-dihydroquinoxalin-2-yl)-2-oxopyridin-1(2H)-yl)propanoic acid], the EC50 [2] was > 20 µM and the IC50 (human CYP2D6) was > 20 µM.
